In paper PMC6748410, “A phase 2 study of an oral mTORC1/mTORC2 kinase inhibitor (CC-223) for non-pancreatic neuroendocrine tumors with or without carcinoid symptoms” (PLoS ONE, 2019):

Test: Treatment-related adverse events and tolerability (CTCAE v4.0) in patients with NET
Format: in vivo
Protocol: CC-223 capsules were taken orally once daily in continuous 28-day cycles. An initial cohort started CC-223 at a dose of 45 mg; this was the maximum tolerated dose (MTD) established in phase 1 but, after observing a high rate of dose adjustments due to toxicity among patients with NET, a second cohort started CC-223 at 30 mg. To mitigate toxicity, dosage could be adjusted with either short interruptions, dose level reductions, or every-other-day administration. Treatment was permanently discontinued for disease progression, unmanageable toxicity, patient withdrawal of consent, or other reasons specified by the protocol as requiring study withdrawal.
Baseline assessments were completed within 28 days prior to first dose of CC-223. Drug tolerability was continuously evaluated until 28 days after the last dose, using clinical event and laboratory test monitoring comprising a conventional hematologic and coagulation (if taking anti-coagulants) panel; serum electrolytes; fasting blood glucose (this also included daily self-monitoring with finger stick samples for the first month and for longer if necessary), HbA1c, insulin, and c-peptide; liver enzymes; serum creatinine; and protein. Others included serum uric acid, amylase and lipase, lipoproteins, thyroid function tests, creatine kinase, and immunoglobulins including T-cell subsets (CD4+ and CD8+). We also performed serial triplicate electrocardiograms (ECGs), periodic left ventricular ejection fraction estimations (echo or multiple gated acquisition [MUGA]), regular physical exams and vital sign measurements (heart rate, blood pressure, respiratory rate, and temperature). Adverse events were coded with Medical Dictionary for Regulatory Activities (MedDRA) version 19.0. Severity of adverse events was classified using the National Cancer Institute Common Terminology Criteria for Adverse Events (CTCAE) version 4.0. A safety review committee provided study oversight.

[1] = 30 mg starting dose (n = 23), any grade
[2] = 45 mg starting dose (n = 24), any grade

For `CO[C@H]1CC[C@H](N2C(=O)CNc3ncc(-c4ccc(C(C)(C)O)nc4)nc32)CC1` [CC-223], the “Patients requiring 1 dose reduction” value (30 mg group (n = 23)) was 11 patients, the “Patients requiring 2 dose reductions” value (30 mg group (n = 23)) was 7 patients and the “Patients requiring more than 2 dose reductions” value (30 mg group (n = 23)) was 0 patients. For the same molecule, the “Treatment-related adverse event: AST increased” value [1] was 3 (13.0) n (%), the “Treatment-related adverse event: Abdominal pain” value [1] was 2 (8.7) n (%) and the “Treatment-related adverse event: Asthenia” value [1] was 7 (30.4) n (%). The “Treatment-related adverse event: Blood creatinine increased” value [1] was 4 (17.4) n (%), the “Treatment-related adverse event: Decreased appetite” value [1] was 4 (17.4) n (%) and the “Treatment-related adverse event: Dehydration” value [1] was 4 (17.4) n (%). For the same molecule, the “Treatment-related adverse event: Diarrhea” value [1] was 17 (73.9) n (%), the “Treatment-related adverse event: Dry mouth” value [1] was 2 (8.7) n (%) and the “Treatment-related adverse event: Dysgeusia” value [1] was 3 (13.0) n (%). For the same molecule, the “Treatment-related adverse event: Fatigue” value [1] was 17 (73.9) n (%), the “Treatment-related adverse event: Hyperglycemia” value [1] was 5 (21.7) n (%) and the “Treatment-related adverse event: Maculopapular rash” value [1] was 3 (13.0) n (%). The “Treatment-related adverse event: Malaise” value [1] was 3 (13.0) n (%), the “Treatment-related adverse event: Mucosal inflammation” value [1] was 3 (13.0) n (%) and the “Treatment-related adverse event: Nausea” value [1] was 6 (26.1) n (%). For the same molecule, the “Treatment-related adverse event: Pruritus” value [1] was 7 (30.4) n (%), the “Treatment-related adverse event: Rash” value [1] was 6 (26.1) n (%) and the “Treatment-related adverse event: Rash macular” value [1] was 2 (8.7) n (%). The “Treatment-related adverse event: Stomatitis” value [1] was 11 (47.8) n (%), the “Treatment-related adverse event: Vomiting” value [1] was 2 (8.7) n (%) and the “Patients requiring 1 dose reduction” value (45 mg group (n = 24)) was 3 patients. The “Patients requiring more than 2 dose reductions” value (45 mg group (n = 24)) was 2 patients, the “Tolerability in the NET cohort” value (45 mg once daily) was “not well-tolerated” and the “Treatment-related adverse event: AST increased” value [2] was 2 (8.3) n (%). The “Treatment-related adverse event: Abdominal pain” value [2] was 3 (12.5) n (%), the “Treatment-related adverse event: Asthenia” value [2] was 4 (16.7) n (%) and the “Treatment-related adverse event: Blood creatinine increased” value [2] was 3 (12.5) n (%). The “Treatment-related adverse event: Decreased appetite” value [2] was 8 (33.3) n (%), the “Treatment-related adverse event: Dehydration” value [2] was 4 (16.7) n (%) and the “Treatment-related adverse event: Diarrhea” value [2] was 19 (79.2) n (%). The “Treatment-related adverse event: Dry mouth” value [2] was 5 (20.8) n (%), the “Treatment-related adverse event: Dysgeusia” value [2] was 5 (20.8) n (%) and the “Treatment-related adverse event: Fatigue” value [2] was 14 (58.3) n (%). The “Treatment-related adverse event: Hyperglycemia” value [2] was 8 (33.3) n (%), the “Treatment-related adverse event: Maculopapular rash” value [2] was 9 (37.5) n (%) and the “Treatment-related adverse event: Malaise” value [2] was 4 (16.7) n (%). For the same molecule, the “Treatment-related adverse event: Mucosal inflammation” value [2] was 3 (12.5) n (%), the “Treatment-related adverse event: Nausea” value [2] was 12 (50.0) n (%) and the “Treatment-related adverse event: Pruritus” value [2] was 12 (50.0) n (%). The “Treatment-related adverse event: Rash” value [2] was 12 (50.0) n (%), the “Treatment-related adverse event: Rash macular” value [2] was 4 (16.7) n (%) and the “Treatment-related adverse event: Stomatitis” value [2] was 14 (58.3) n (%). The “Treatment-related adverse event: Vomiting” value [2] was 5 (20.8) n (%), the “Patients with one or more serious adverse event related to CC-223” value (8 of 47 patients) was 17% and the “Patients who remained on the dose initially assigned” value (12 of 47 patients) was 26%. The “Treatment-related adverse event: AST increased” value (Any dose (N = 47), Grade 3) was 2 (4.3) n (%), the “Treatment-related adverse event: Abdominal pain” value (Any dose (N = 47), Grade 3) was 1 (2.1) n (%) and the “Treatment-related adverse event: Asthenia” value (Any dose (N = 47), Grade 3) was 3 (6.4) n (%). For the same molecule, the “Treatment-related adverse event: Blood creatinine increased” value (Any dose (N = 47), Grade 3) was 1 (2.1) n (%), the “Treatment-related adverse event: Decreased appetite” value (Any dose (N = 47), Grade 3) was 1 (2.1) n (%) and the “Treatment-related adverse event: Dehydration” value (Any dose (N = 47), Grade 3) was 1 (2.1) n (%). The “Treatment-related adverse event: Diarrhea” value (Any dose (N = 47), Grade 3) was 18 (38.3) n (%), the “Treatment-related adverse event: Dry mouth” value (Any dose (N = 47), Grade 3) was 0 n (%) and the “Treatment-related adverse event: Dysgeusia” value (Any dose (N = 47), Grade 3) was 0 n (%). The “Treatment-related adverse event: Fatigue” value (Any dose (N = 47), Grade 3) was 10 (21.3) n (%), the “Treatment-related adverse event: Hyperglycemia” value (Any dose (N = 47), Grade 3) was 0 n (%) and the “Treatment-related adverse event: Maculopapular rash” value (Any dose (N = 47), Grade 3) was 3 (6.4) n (%). The “Treatment-related adverse event: Malaise” value (Any dose (N = 47), Grade 3) was 0 n (%), the “Treatment-related adverse event: Mucosal inflammation” value (Any dose (N = 47), Grade 3) was 0 n (%) and the “Treatment-related adverse event: Nausea” value (Any dose (N = 47), Grade 3) was 1 (2.1) n (%). The “Treatment-related adverse event: Pruritus” value (Any dose (N = 47), Grade 3) was 2 (4.3) n (%), the “Treatment-related adverse event: Rash” value (Any dose (N = 47), Grade 3) was 1 (2.1) n (%) and the “Treatment-related adverse event: Rash macular” value (Any dose (N = 47), Grade 3) was 1 (2.1) n (%). For the same molecule, the “Treatment-related adverse event: Stomatitis” value (Any dose (N = 47), Grade 3) was 5 (10.6) n (%), the “Treatment-related adverse event: Vomiting” value (Any dose (N = 47), Grade 3) was 2 (4.3) n (%) and the “Treatment-related adverse event: AST increased” value (Any dose (N = 47), any grade) was 5 (10.6) n (%). For the same molecule, the “Treatment-related adverse event: Abdominal pain” value (Any dose (N = 47), any grade) was 5 (10.6) n (%), the “Treatment-related adverse event: Asthenia” value (Any dose (N = 47), any grade) was 11 (23.4) n (%) and the “Treatment-related adverse event: Blood creatinine increased” value (Any dose (N = 47), any grade) was 7 (14.9) n (%). The “Treatment-related adverse event: Decreased appetite” value (Any dose (N = 47), any grade) was 12 (25.5) n (%), the “Treatment-related adverse event: Dehydration” value (Any dose (N = 47), any grade) was 8 (17.0) n (%) and the “Treatment-related adverse event: Diarrhea” value (Any dose (N = 47), any grade) was 36 (76.6) n (%). For the same molecule, the “Treatment-related adverse event: Dry mouth” value (Any dose (N = 47), any grade) was 7 (14.9) n (%), the “Treatment-related adverse event: Dysgeusia” value (Any dose (N = 47), any grade) was 8 (17.0) n (%) and the “Treatment-related adverse event: Fatigue” value (Any dose (N = 47), any grade) was 31 (66.0) n (%). The “Treatment-related adverse event: Hyperglycemia” value (Any dose (N = 47), any grade) was 13 (27.7) n (%), the “Treatment-related adverse event: Maculopapular rash” value (Any dose (N = 47), any grade) was 12 (25.5) n (%) and the “Treatment-related adverse event: Malaise” value (Any dose (N = 47), any grade) was 7 (14.9) n (%). For the same molecule, the “Treatment-related adverse event: Mucosal inflammation” value (Any dose (N = 47), any grade) was 6 (12.8) n (%), the “Treatment-related adverse event: Nausea” value (Any dose (N = 47), any grade) was 18 (38.3) n (%) and the “Treatment-related adverse event: Pruritus” value (Any dose (N = 47), any grade) was 19 (40.4) n (%). For the same molecule, the “Treatment-related adverse event: Rash” value (Any dose (N = 47), any grade) was 18 (38.3) n (%), the “Treatment-related adverse event: Rash macular” value (Any dose (N = 47), any grade) was 6 (12.8) n (%) and the “Treatment-related adverse event: Stomatitis” value (Any dose (N = 47), any grade) was 25 (53.2) n (%). The “Treatment-related adverse event: Vomiting” value (Any dose (N = 47), any grade) was 7 (14.9) n (%), the “Most common TRAEs: asthenia” value (any grade, n = 47) was 23% and the “Most common TRAEs: decreased appetite” value (any grade, n = 47) was 26%. For the same molecule, the “Most common TRAEs: diarrhea” value (any grade, n = 47) was 77%, the “Most common TRAEs: fatigue” value (any grade, n = 47) was 66% and the “Most common TRAEs: hyperglycemia” value (any grade, n = 47) was 28%. The “Most common TRAEs: maculopapular rash” value (any grade, n = 47) was 26%, the “Most common TRAEs: nausea” value (any grade, n = 47) was 38% and the “Most common TRAEs: pruritus” value (any grade, n = 47) was 40%. The “Most common TRAEs: rash” value (any grade, n = 47) was 38%, the “Most common TRAEs: stomatitis” value (any grade, n = 47) was 53% and the “Patients who reported at least one treatment-related adverse event (TRAE)” value (by investigator determination, n = 47) was 98%. The “Patients with doses reduced for extended periods to levels as low as 15 mg” value (human, in vivo) was 45%, the “Deaths on study due to treatment-related toxicity” value (n = 47) was “No patient died” and the “Grade 3 or higher toxicity: diarrhea” value (n = 47) was 38%. For the same molecule, the “Grade 3 or higher toxicity: fatigue” value (n = 47) was 21%, the “Grade 3 or higher toxicity: stomatitis” value (n = 47) was 11% and the “Grade 4 or 5 toxicities among the most common adverse events” value (n = 47) was “no grade 4 or 5 toxicities reported”. The “Patients who discontinued CC-223 because of toxicity” value (n = 47) was 13%, the “Patients who experienced grade 3 or 4 treatment-related events” value (n = 47) was 79% and the “Patients who required dose adjustments due to toxicity” value (n = 47) was 85%. The “Toxicity causing discontinuation: decreased appetite” value (n = 47) was 6%, the “Toxicity causing discontinuation: diarrhea” value (n = 47) was 9% and the “Toxicity causing discontinuation: nausea” value (n = 47) was 4%. The “Toxicity requiring dose adjustments: diarrhea” value (n = 47) was 40%, the “Toxicity requiring dose adjustments: fatigue” value (n = 47) was 17% and the “Toxicity requiring dose adjustments: increased blood creatinine” value (n = 47) was 13%. The “Toxicity requiring dose adjustments: stomatitis” value (n = 47) was 17%, the “Patients requiring 2 dose reductions” value (overall, n = 47) was 19 patients and the “Patients requiring more than 2 dose reductions” value (overall, n = 47) was 4 patients. The “Mean time to first dose reduction” value (overall, range 8–589 days) was 46 days.
